Data from patent US20070105787A1, “Use of ribose in recovery from anaesthesia” (priority 2004, published 2007).

What was measured:
[1] = test system: healthy dog hearts after 20 minute normothermic global myocardial ischemia; details: D-Ribose from reperfusion for at least four days; cited from earlier work
[2] = test system: patients selected for OCBP revascularization; experiment: presurgical oral ribose loading, off cardiopulmonary bypass (OCBP) revascularization trial; type: in vivo, human; details: oral D-ribose preoperatively (24 patients) vs no ribose (20), baseline to post-operative, p<0.028
Description: Patients with stable coronary artery disease or patients presenting with acute myocardial infarction may undergo revascularization using an “off” cardiopulmonary bypass procedure (“OCBP”). This procedure avoids the deleterious effects of cross-clamping in patients who can be selected for the procedure. The selection criteria include: accessibility of the grafts; number of the grafts; condition of the patient. When the area to be revascularized is at the back of the heart, the heart will need to be handled and rotated, which would interfere with the beating of the heart. If several grafts are needed, the time of operation is prolonged and the patient's heart will need to support circulation for a long time. Finally, a poorly functioning heart will need the assistance of the pump to support circulation. Nevertheless, in properly selected patients, the benefits of avoiding cross-clamping are substantial.
Forty-four adult patients were enrolled in a trial. At least one-third of the patents had sustained an acute myocardial infarction prior to presentation and pre-operative ejection fractions ranged from 30-72%. All patients were selected for OCBP revascularization with 20 patients comsuming no pre-operative ribose and 24 patients given oral D-ribose preoperatively, cardiac indices were measured at baseline and post-operatively. […]

[3] = test system: Wistar rats, recovery from general anaesthesia; experiment: planned rat sham abdominal surgery study under halothane anaesthesia; type: in vivo; details: D-Ribose before, during and after sham operation, vs D-Glucose placebo
Description: Littered-paired Wistar rats will be preconditioned with oral D-Ribose (250 mg/day, 10 animals) as a test drug or D-Glucose (250 mg/day, 10 animals) as a placebo for five days. Following the preconditioning, the rats will be anesthetized with halothane, intubated for artificial respiration and paralyzed with curare. Following general anaesthesia, the rats will be given either the test drug or placebo, intravenously (IV). A two-inch abdominal incision will be made and the viscera will be carefully manipulated to simulate an abdominal exploratory surgery. The incision will be closed and the animals will be held under anaesthesia for one additional hour. Following that hour, anaesthesia will be discontinued and the IV infusion will be halted. The animals will be placed individually in activity cages and their activity will be assessed daily for five days. Test drug or placebo will be added to the drinking water at a dosage of 5% wt/vol. The blinded results will be observed for: first movement (return to consciousness following the sham operation) and daily activity over the first day and next five days. Food and water intake and gastrointestinal function will be measured.

[4] = test system: myocardial dysfunction resulting from globally induced ischemia during cardiac surgical procedures; type: in vivo, human
Description: Inclusion criteria were: • Males or females aged 18 or older • Patients with documented coronary artery disease undergoing CABG with an ejection fraction (EF) of ≦35% based on echocardiography, radionuclide imaging or cardiac catheterization done within eight weeks of surgery. (If more than one method was used to evaluate EF during this period, the mean values of the various methods were ≦35%). • Patients undergoing single or double valve replacement with documented coronary artery disease also undergoing CABG; or patients undergoing single or double valve replacement without CABG • Serum creatinine of ≦2.35 mg/dl • For females of childbearing potential, a negative pregnancy test. • Signed consent forms. The test article, placebo or ribose, was dispensed according to computer-generated randomization schedule either for patients undergoing CABG only or for patients undergoing heart valve surgery +/-CABG. All patients received a high dose narcotic anaesthesia technique consisting of either fentanyl (50-100 μg/kg) or sufentanil (10-20 μg/kg) and midazolam. No restriction was placed on the type of anaesthetic agents administered. The anaesthesiologists and surgeons responsible for the care of the patents made the clinical decision to use inotropic support, intra-aortic balloon pump support or post bypass circulatory support based on their knowledge of patients requirements and accepted medical practice and without regard to test article status. The test article infusion was started intravenously at the time of aortic cross clamping and continued until the pulmonary artery catheters introducer was removed or for five days (120) hours whichever occurred first. The surgeons responsible for the clinical care of the patients removed the pulmonary artery catheter cordis without regard to test article stats. Hemodynamic measurements consisting of heart rate, blood pressure, pulmonary artery pressures, pulmonary capillary wedge pressure (PCWP), central venous pressure (CVP) and thermodilution cardiac index (CI) were obtained at the following time intervals: immediately prior to induction of anaesthesia, post induction of anaesthesia prior to sternotomy, post sternotomy prior to initiation of cardiopulmonary bypass, upon successful termination of cardiopulmonary bypass prior to sternal closure and prior to reversal of heparinization with protamine, post closure of the sternum, upon arrival in the intensive care unit and at one or two hour intervals until the pulmonary artery a catheter was removed. Transesophageal echocardiography data (H.P. Sonos OR, 5.0 MHz, Andover, Mass.) was collected at the following time intervals: post induction of anaesthesia prior to sternotomy, and immediately post closure of the sternum. Transthoracic echocardiography (H.P. Sonos 1500. 2.5 MHz, Andover, Mass.) measurements were made on day three and day seven of the study period. For both the transesophageal and transthoracic echocardiograms, the following long axis and short axis mid-papillary area changes were measured in triplicate by acoustic quantification techniques: end diastolic area (EDA), end systolic area (ESA), fractional area change (FAC), +dA/dt and -dA/dt. All area change data were also analyzed by manual off line analysis. EF was also determined off line using a long axis view. In addition, regional wall motion was quantified as the following: normal=1, hypokinetic=2, akinetic=3 and dyskinetic=4. The wall motion index score (WMIS) and percentage normal myocardium were calculated by reading a maximum of sixteen segments. Echocardiography data for evaluating wall motion and area change was analyzed only if greater than 75% of the endocardial border could be visualized through a complete cardiac cycle. […]

[5] = test system: sheep undergoing aortic valve replacement under general anaesthesia
[6] = test system: recovery from general anaesthesia; experiment: anecdotal reports, non-cardiac surgery with general anaesthesia; type: in vivo, human; details: person, vs first operation
Description: A. Anecdotal Results from Non-Cardiac Surgery with General Anaesthesia. […] For example, a person underwent two hip replacement operations, five months apart. With the second operation, they began taking oral ribose immediately after their recovery from anaesthesia. Their recovery to a feeling of alertness and energy was more rapid than after the first operation. Furthermore, their level of pain was less. Likewise, a person also underwent two knee replacement operations. With the second operation, they self-administered D-Ribose pre- and postoperatively. Their recovery to a feeling of alertness and energy was more rapid than after the first operation. Bauer et al. (Z. Geb. Neonatal 2001 May-June, 205(3):80-85) studied the efficacy of oral glucose for treating procedural pain in neonates. […] The authors proposed that the orogustatory stimulation by the sweet taste caused an endorphin release. It is not known whether the result seen was due to the local effect or to a systemic effect of glucose.

[7] = test system: patients undergoing AVR with aortic cross clamping; experiment: planned trial of preoperative oral plus intravenous D-Ribose before cross clamping (Example 3); type: in vivo, human; details: oral D-Ribose preloading plus IV 100 mg/kg/hour with D-Glucose, vs placebo
Description: A single-center, randomized, double-blinded placebo-controlled clinical trial was designed to determine if preoperative oral administration of D-Ribose, following by peri-operative and operative intravenous infusion of D-Ribose could improve the ejection fraction and other functional parameters of hearts that are cross-clamped for various cardiac surgical procedures. Thirty (30) patients meeting the inclusion and exclusion criteria and who have signed informed consent forms will be randomized to receive oral D-Ribose (15) or D-Glucose (placebo) (15) for seven or 14 days prior to their surgical procedure and intravenous 5% […] (5% D-Glucose in normal saline, 0.5 mL/kg/hour) or 10% pyrogen-free D-Ribose in 5% D5W at a dose of 100 mg/kg/hour for five (5) days through a pulmonary artery cordis) beginning at the time of aortic cross clamping. […] Patients will be evaluated baseline×2, (once prior to beginning oral test supplement and again within three days prior to surgical procedure), during and after surgery, and at days 1, 5 and 7. […] Patients will be evaluated for eligibility within three days to first test article administration and evaluation will be updated within three days prior to surgery. […] A medication history will be taken and all medications recorded in the case report. […]

[8] = test system: procedural pain in neonates; details: glucose solution on the tongue; cited from earlier work
[9] = second hip replacement, oral ribose after anaesthesia

Row | SMILES | ATP recovery [1] | greater increase in cardiac indices compared to controls [2] [%] | expected movement after anaesthesia and activity during the following five days [3] | patients who developed hypoglycemia (fingerstick glucose<70 mg/dl) ([4]; both, human, in vivo) [%] | lowest glucose level ([4]; human, in vivo) [mg/dL] | mean glucose level in those patients developing hypoglycemia ([4]; human, in vivo) [mg/dL] | neurological or other clinical symptoms associated with hypoglycemia ([4]; human, in vivo) | mean Day 7 EF ([4]; ribose treated patients, Day 7, echocardiography, IV 100 mg/kg/hr, p=0.49 vs baseline) [%] | mean baseline EF ([4]; ribose treated patients, baseline, echocardiography, IV 100 mg/kg/hr) [%] | change of EF from baseline to Day 7 ([4]; ribose treated patients, placebo EF declined, treatment effect p=0.04) | tolerability (metabolic or chemical abnormalities) ([5]; in vivo, iv) | time quiet and inactive after extubation ([5]; sheep given ribose) | time to eating solid food ([5]; sheep given ribose, some animals, after the quiet period) | time to assume a consciousness state upon weaning from the ventilator ([5]; sheep, vs animals not given ribose) | time to cardiac arrest with cardioplegia ([5]; sheep, vs animals not given ribose, difference not statistically significant) | level of pain [6, 9] | recovery to a feeling of alertness and energy [6, 9] | recovery to a feeling of alertness and energy ([6]; second knee replacement, D-Ribose pre- and postoperatively) | expected myocardial function and recovery [7] | degree of pain experienced during venous blood sampling [8]
1 | O=C[C@H](O)[C@H](O)[C@H](O)CO [D-Ribose] | enhanced ATP recovery | 49 | earlier movement after anaesthesia and increased activity | 28 | 31 | 58 | None of these patients developed neurological or other clinical symptoms | 41 | 44 | unchanged | no metabolic or chemical abnormalities | about one | within the next hour | faster | somewhat faster | less | more rapid | more rapid | better myocardial function | 
2 | O=C[C@H](O)[C@@H](O)[C@H](O)[C@H](O)CO [glucose, D-Glucose] |  |  |  |  |  |  |  |  |  |  |  |  |  |  |  |  |  |  |  | reduced the degree of pain
